Experimental data published in patent US20230146870A1, “METHOD TO QUANTIFY AFFINITY AND SELECTIVITY OF SMALL MOLECULES FOR PROTEINS IN LIVING CELLS” (Ohio State Innovation Foundation, priority 2021, published 2023).

Key:
mouse PKCβI-mVenus [1] = target: T1, mouse PKCβI-mVenus (Mus musculus, UniProt P68404); assay: Fluorescent cellular competition assay with probe 47, PKCβI-mVenus; assay type: binding
T1 construct: eight plasmids encoding full length mouse PKC isozymes fused to; expressed in transfected cells; host or cells: HEK293
T1 sequence (P68404 whole entry, the tested form may be a part): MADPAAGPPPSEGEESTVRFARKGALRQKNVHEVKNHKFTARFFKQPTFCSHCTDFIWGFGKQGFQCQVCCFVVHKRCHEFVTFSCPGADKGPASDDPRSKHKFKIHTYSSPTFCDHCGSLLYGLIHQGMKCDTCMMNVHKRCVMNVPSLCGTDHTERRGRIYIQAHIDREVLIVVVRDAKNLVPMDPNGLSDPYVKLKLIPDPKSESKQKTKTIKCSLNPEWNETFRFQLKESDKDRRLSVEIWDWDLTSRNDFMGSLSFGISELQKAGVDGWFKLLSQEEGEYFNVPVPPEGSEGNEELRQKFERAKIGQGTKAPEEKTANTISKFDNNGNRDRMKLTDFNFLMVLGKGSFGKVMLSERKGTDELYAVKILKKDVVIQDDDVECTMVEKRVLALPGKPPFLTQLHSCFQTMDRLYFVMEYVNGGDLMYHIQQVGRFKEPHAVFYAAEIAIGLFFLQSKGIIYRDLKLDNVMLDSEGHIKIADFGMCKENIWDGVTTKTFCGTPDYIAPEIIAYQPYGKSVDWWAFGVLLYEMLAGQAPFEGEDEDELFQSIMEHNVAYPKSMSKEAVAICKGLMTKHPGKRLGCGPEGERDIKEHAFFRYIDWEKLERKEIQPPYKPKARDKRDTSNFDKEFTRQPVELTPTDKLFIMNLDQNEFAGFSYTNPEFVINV
Excerpt: (§1) Labeled compounds (tracers) can be used to measure dissociation constants (Kd) and evaluate how tightly different compounds bind to a target protein. However, labeled ligands are not always readily accessible and labels such as fluorophores on small molecules can affect affinities compared to unlabeled compounds. As an alternative, competitive binding assays are widely used to quantify the affinity of small molecules for target proteins. This approach can measure binding by varying the concentration of an unlabeled ligand in the presence of a fixed concentration of a tracer of interest (FIG. 24). The feasibility of this approach for quantification of cellular Ki values using probe 47 was validated with PMA as shown in Table 1.
(§2) HEK293 cells were transfected with different plasmids encoding fluorescent PKC isoforms.

mouse PKCη-mVenus = mouse PKCη-mVenus (Mus musculus, UniProt P23298); assay: Fluorescent cellular competition assay with probe 47, PKCη-mVenus; assay type: binding; parameters: eight plasmids encoding full length mouse PKC isozymes fused to; expressed in transfected cells; host or cells: HEK293
Chain of mouse PKCη-mVenus (P23298 whole entry, the tested form may be a part): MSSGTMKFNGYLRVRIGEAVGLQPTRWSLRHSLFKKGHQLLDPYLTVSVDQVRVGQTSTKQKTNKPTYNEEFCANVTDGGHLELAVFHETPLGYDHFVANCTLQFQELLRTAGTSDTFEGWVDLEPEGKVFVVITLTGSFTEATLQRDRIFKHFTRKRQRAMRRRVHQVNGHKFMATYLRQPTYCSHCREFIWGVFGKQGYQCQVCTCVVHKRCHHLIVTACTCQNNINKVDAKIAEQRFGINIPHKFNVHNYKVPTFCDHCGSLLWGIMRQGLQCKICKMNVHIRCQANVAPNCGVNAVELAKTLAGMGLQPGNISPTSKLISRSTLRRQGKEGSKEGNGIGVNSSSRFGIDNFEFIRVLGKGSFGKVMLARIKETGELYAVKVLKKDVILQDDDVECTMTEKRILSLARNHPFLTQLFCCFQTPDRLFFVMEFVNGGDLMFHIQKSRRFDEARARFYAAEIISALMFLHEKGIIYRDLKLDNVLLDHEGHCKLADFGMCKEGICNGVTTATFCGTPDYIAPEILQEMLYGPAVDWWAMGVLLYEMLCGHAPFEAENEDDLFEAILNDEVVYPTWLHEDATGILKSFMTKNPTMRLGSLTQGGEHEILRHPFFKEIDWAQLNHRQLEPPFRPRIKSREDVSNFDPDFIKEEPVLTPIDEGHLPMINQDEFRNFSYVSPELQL
Excerpt: as §1, §2

mouse PKCα-mVenus = mouse PKCα-mVenus (Mus musculus, UniProt P20444); assay: Fluorescent cellular competition assay with probe 47, PKCα-mVenus; assay type: binding; parameters: eight plasmids encoding full length mouse PKC isozymes fused to; expressed in transfected cells; host or cells: HEK293
Excerpt: as §1, §2

mouse PKCδ-mVenus = mouse PKCδ-mVenus (Mus musculus, UniProt P28867); assay: Fluorescent cellular competition assay with probe 47, PKCδ-mVenus; assay type: binding; parameters: eight plasmids encoding full length mouse PKC isozymes fused to; expressed in transfected cells; host or cells: HEK293
Chain of mouse PKCδ-mVenus (P28867 whole entry, the tested form may be a part): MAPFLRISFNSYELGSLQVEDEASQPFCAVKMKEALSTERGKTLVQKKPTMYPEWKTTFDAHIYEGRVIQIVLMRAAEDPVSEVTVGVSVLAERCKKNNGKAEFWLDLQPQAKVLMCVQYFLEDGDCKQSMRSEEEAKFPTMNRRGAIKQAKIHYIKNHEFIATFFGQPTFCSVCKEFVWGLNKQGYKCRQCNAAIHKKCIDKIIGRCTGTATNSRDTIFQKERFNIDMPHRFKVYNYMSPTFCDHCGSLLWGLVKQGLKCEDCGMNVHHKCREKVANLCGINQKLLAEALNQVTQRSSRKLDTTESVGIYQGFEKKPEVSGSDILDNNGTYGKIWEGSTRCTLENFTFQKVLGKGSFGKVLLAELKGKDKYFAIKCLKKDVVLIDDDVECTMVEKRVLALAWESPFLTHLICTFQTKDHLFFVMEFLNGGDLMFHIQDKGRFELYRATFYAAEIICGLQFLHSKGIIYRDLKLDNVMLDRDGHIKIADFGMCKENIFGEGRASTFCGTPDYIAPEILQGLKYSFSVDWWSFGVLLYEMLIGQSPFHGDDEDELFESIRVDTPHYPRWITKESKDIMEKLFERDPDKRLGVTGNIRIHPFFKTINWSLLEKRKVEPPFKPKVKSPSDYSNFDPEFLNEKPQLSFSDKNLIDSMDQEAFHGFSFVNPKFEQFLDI
Excerpt: as §1, §2

mouse PKCθ-mVenus = mouse PKCθ-mVenus (Mus musculus, UniProt Q02111); assay: Fluorescent cellular competition assay with probe 47, PKCθ-mVenus; assay type: binding; parameters: eight plasmids encoding full length mouse PKC isozymes fused to; expressed in transfected cells; host or cells: HEK293 (transient)
Chain of mouse PKCθ-mVenus (Q02111 whole entry, the tested form may be a part): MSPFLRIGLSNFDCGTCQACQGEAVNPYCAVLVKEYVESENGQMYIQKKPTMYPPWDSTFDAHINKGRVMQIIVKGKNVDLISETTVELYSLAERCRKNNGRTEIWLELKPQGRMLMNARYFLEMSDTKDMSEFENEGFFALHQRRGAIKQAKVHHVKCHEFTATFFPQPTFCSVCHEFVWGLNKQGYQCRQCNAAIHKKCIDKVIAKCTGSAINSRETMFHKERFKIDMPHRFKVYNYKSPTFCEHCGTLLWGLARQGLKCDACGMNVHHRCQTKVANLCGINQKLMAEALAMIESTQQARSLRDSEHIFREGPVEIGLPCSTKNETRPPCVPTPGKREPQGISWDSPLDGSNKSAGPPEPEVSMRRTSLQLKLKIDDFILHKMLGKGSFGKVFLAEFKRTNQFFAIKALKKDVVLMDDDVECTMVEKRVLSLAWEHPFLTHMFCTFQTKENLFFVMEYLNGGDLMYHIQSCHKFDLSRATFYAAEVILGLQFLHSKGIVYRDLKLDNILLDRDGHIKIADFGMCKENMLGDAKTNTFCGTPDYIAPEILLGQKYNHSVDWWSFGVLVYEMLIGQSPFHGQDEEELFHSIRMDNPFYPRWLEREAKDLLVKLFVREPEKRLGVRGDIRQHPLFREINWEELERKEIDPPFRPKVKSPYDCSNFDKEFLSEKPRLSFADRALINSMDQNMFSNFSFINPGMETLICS
Excerpt: as §1, §2

mouse PKCγ-mVenus = mouse PKCγ-mVenus (Mus musculus, UniProt P63318); assay: Fluorescent cellular competition assay with probe 47, PKCγ-mVenus; assay type: binding; parameters: eight plasmids encoding full length mouse PKC isozymes fused to; expressed in transfected cells; host or cells: HEK293
Excerpt: as §1, §2

mouse PKCε-mVenus = target: T2, mouse PKCε-mVenus (Mus musculus, UniProt P16054); assay: Fluorescent cellular competition assay with probe 47, PKCε-mVenus; assay type: binding; parameters: eight plasmids encoding full length mouse PKC isozymes fused to; expressed in transfected cells; host or cells: HEK293
T2 sequence (P16054 1-737): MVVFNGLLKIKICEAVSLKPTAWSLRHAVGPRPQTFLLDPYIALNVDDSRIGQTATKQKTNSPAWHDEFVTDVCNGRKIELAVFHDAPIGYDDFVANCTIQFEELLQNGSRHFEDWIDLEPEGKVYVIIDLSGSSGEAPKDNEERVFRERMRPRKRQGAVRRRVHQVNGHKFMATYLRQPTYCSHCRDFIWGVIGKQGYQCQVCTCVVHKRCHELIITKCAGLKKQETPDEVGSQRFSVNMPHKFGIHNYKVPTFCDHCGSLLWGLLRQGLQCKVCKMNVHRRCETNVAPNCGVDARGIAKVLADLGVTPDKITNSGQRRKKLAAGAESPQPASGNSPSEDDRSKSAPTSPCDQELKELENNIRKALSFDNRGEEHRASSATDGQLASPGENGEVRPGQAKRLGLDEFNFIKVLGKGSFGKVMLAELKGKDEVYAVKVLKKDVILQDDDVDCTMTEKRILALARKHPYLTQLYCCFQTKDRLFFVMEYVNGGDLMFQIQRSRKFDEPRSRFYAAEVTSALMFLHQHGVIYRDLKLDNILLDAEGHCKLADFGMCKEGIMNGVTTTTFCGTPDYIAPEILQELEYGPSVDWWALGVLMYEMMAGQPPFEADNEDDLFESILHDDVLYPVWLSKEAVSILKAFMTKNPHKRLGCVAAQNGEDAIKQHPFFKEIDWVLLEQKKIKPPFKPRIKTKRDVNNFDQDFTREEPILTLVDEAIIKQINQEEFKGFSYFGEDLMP
Excerpt: as §1, §2

C1A-C1A-EYFP (PKCγ) = target: T3, C1A-C1A-EYFP (PKCγ) (UniProt P63319); assay: Cellular binding by flow cytometry, HEK293 cells expressing C1A-C1A-EYFP (PKCγ)
T3 construct: apparent Kd; other: verapamil 100 μM, 90 min, 37° C., DMEM high glucose, 4% FBS; half time (t1/2) of cellular fluorescence; other: 33 at 5 μM, verapamil 100 μM, room temperature; fused on or other part: EYFP at the C-terminus; the C1A module is present twice in one chain
Excerpt: The dissociation constant can be defined as the ratio of koff divided by kon. This value is also the concentration where the ligand occupies 50% of the receptor.^94 Kd is only meaningful when equilibrium is reached, where the ligand-receptor complex is formed at the same rate as it dissociates into free ligand and receptor (FIG. 15). This binding equilibrium is established when essentially no further change in the amount of bound complex is observed over time. To evaluate the time needed for equilibration, we treated HEK293 cells that overexpress C1A-C1A-EYFP (PKCγ) with 33 (0 and 5 μM) in the presence or absence of verapamil (100 μM) and cellular fluorescence was measured by flow cytometry as a function of time (FIG. 18A). […] This optimization was used to establish a 90 min equilibration period for further assay optimization.
The presence of fetal bovine serum (FBS) in the culture media also influenced the binding by sequestering the free ligand. The assay conditions were finalized using HEK293 cells incubated with the probe in the presence of verapamil for 90 min at 37° C. in DMEM media (high glucose, 4% FBS).

[2] = tested on: microtubules in living HeLa cells; assay: Allosteric modulator assay with PB-GABA-Taxol in living HeLa cells (cellular Kb, α); details: PB-GABA-Taxol 1.5 μM, verapamil 100 μM, 3 h, 37° C.; for Kb: read-out: cellular Kb (allosteric modulator)
Excerpt: In this model, two compounds that engage tubulin at different binding sites influence the binding of each other through cooperativity. […] Smaller cooperativity factors (α) represent stronger effects on binding of the orthosteric probe. For these allosteric modulators, the apparent cellular affinity was defined as Kb, and the mathematical relationship between Kb and α is provided (equation 3).
The experimental method for allosteric binding assays was identical to the competition binding assays described previously. However, because it is inaccurate to describe an allosteric modulator with a competitive inhibitory constant (Ki), we used an allosteric modulator model (Kb) for data analysis. […] The observed occupancy of the orthosteric ligand is defined as KApp and is determined by the equilibrium dissociation constant of the orthosteric ligand (Kd), the concentration of allosteric ligand, its affinity for the receptor (Kb), and the strength by which the allosteric ligand affects receptor binding to the orthosteric ligand as defined by the cooperativity factor (a).

[3] = tested on: cellular microtubules (HeLa cells); assay: Pilot screen of NCI Diversity Set VI: inhibition of binding of PB-GABA-Taxol, with dose-response validation; details: 25 μM, 3 h, normalized to DMSO (0%) and paclitaxel 10 μM (100%)
[4] = target: crosslinked / purified microtubules; details: previously reported, cited from earlier work; for Kd: read-out: biochemical Kd for microtubules; for Ki: read-out: biochemical Ki for microtubules
[5] = tested on: microtubules (taxane binding site) in living HeLa cells; assay: Competition binding assay with PB-GABA-Taxol in living HeLa cells (cellular Ki); details: read-out: cellular Ki; PB-GABA-Taxol 1.5 μM, verapamil 100 μM, 37° C., 4% FBS, 3 h
Procedure: In this assay the cellular Kd was measured by varying the concentration of the fluorescent probe added to cells at equilibrium as established by kinetic assays of probe uptake. Total binding of this probe to specific and non-specific sites in cells in the presence of the efflux inhibitor verapamil was determined by flow cytometry. Non-specific binding was quantified separately by addition of excess paclitaxel with the probe under the same conditions. Subtraction of the linear non-specific binding contribution from the total binding curve was used analyze specific binding of the probe to tubulin of microtubules. Measurement of this cellular dissociation constant under equilibrium conditions further allowed conversion of the half-maximal inhibitory concentration (IC50) of unlabeled compounds into cellular inhibitory constants using an adaptation of the Cheng-Prusoff equation^44 for competitive modulators (Ki) or the allosteric equation^45 for non-competitive modulators (Kb and the cooperativity factor α) as implemented by GraphPad Prism.

mouse PKCβI-mVenus [6] = target: T1, mouse PKCβI-mVenus; assay: Apparent cellular Kd by flow cytometry, HEK293 cells overexpressing PKCβI-mVenus (Example 2); assay type: binding
Procedure: The apparent Kd values of these fluorescent probes were measured using different PKC isozymes (e.g., PKCβI, FIGS. 20A-20D). HEK293 cells were transfected to overexpress PKCβ-mVenus and treated with probes in the presence of verapamil (100 μM) as an inhibitor of efflux.

For CCCCCCCCCCCCCC(=O)O[C@@H]1[C@@H](C)[C@@]2(O)[C@@H](C=C(CO)C[C@]3(O)C(=O)C(C)=C[C@@H]23)[C@@H]2C(C)(C)[C@]12OC(C)=O [PMA, 12-O-tetradecanoylphorbol-13-acetate], the “Efficacy, PKCβI” value (mouse PKCβI-mVenus [1]; PMA vs probe 47) was 103%, the “IC50/Ki, PKCβI” value (mouse PKCβI-mVenus [1]; PMA vs probe 47) was 2.5 and the IC50 (mouse PKCβI-mVenus [1]; probe 47 1.4 μM, verapamil 25 μM, read-out: IC50 (PMA), PKCβI) was 0.015 µM. The Ki (mouse PKCβI-mVenus [1]; probe 47 1.4 μM, verapamil 25 μM, read-out: Ki (PMA), PKCβI) was 0.0057 µM, the “Efficacy, PKCη” value (mouse PKCη-mVenus; PMA vs probe 47) was 80% and the “IC50/Ki, PKCη” value (mouse PKCη-mVenus; PMA vs probe 47) was 1.5. For the same molecule, the IC50 (mouse PKCη-mVenus; probe 47 4.3 μM, verapamil 25 μM, read-out: IC50 (PMA), PKCη) was 0.032 µM, the Ki (mouse PKCη-mVenus; probe 47 4.3 μM, verapamil 25 μM, read-out: Ki (PMA), PKCη) was 0.021 µM and the “Efficacy, PKCα” value (mouse PKCα-mVenus; PMA vs probe 47) was 95%. The “IC50/Ki, PKCα” value (mouse PKCα-mVenus; PMA vs probe 47) was 1.9, the IC50 (mouse PKCα-mVenus; probe 47 1.4 μM, verapamil 25 μM, read-out: IC50 (PMA), PKCα) was 0.014 µM and the Ki (mouse PKCα-mVenus; probe 47 1.4 μM, verapamil 25 μM, read-out: Ki (PMA), PKCα) was 0.0075 µM. For the same molecule, the “Efficacy, PKCδ” value (mouse PKCδ-mVenus; PMA vs probe 47) was 81%, the “IC50/Ki, PKCδ” value (mouse PKCδ-mVenus; PMA vs probe 47) was 1.7 and the IC50 (mouse PKCδ-mVenus; probe 47 5.8 μM, verapamil 25 μM, read-out: IC50 (PMA), PKCδ) was 0.039 µM. For the same molecule, the Ki (mouse PKCδ-mVenus; probe 47 5.8 μM, verapamil 25 μM, read-out: Ki (PMA), PKCδ) was 0.023 µM, the “Efficacy, PKCθ” value (mouse PKCθ-mVenus; PMA vs probe 47) was 80% and the “IC50/Ki, PKCθ” value (mouse PKCθ-mVenus; PMA vs probe 47) was 1.4. For the same molecule, the IC50 (mouse PKCθ-mVenus; probe 47 4.3 μM, verapamil 25 μM, read-out: IC50 (PMA), PKCθ) was 0.013 µM, the Ki (mouse PKCθ-mVenus; probe 47 4.3 μM, verapamil 25 μM, read-out: Ki (PMA), PKCθ) was 0.01 µM and the “Efficacy, PKCγ” value (mouse PKCγ-mVenus; PMA vs probe 47) was 97%. The “IC50/Ki, PKCγ” value (mouse PKCγ-mVenus; PMA vs probe 47) was 2.4, the IC50 (mouse PKCγ-mVenus; probe 47 2.9 μM, verapamil 25 μM, read-out: IC50 (PMA), PKCγ) was 0.012 µM and the Ki (mouse PKCγ-mVenus; probe 47 2.9 μM, verapamil 25 μM, read-out: Ki (PMA), PKCγ) was 0.0049 µM. The “Efficacy, PKCε” value (mouse PKCε-mVenus; PMA vs probe 47) was 81%, the “IC50/Ki, PKCε” value (mouse PKCε-mVenus; PMA vs probe 47) was 1.4 and the IC50 (mouse PKCε-mVenus; probe 47 2.9 μM, verapamil 25 μM, read-out: IC50 (PMA), PKCε) was 0.049 µM. The Ki (mouse PKCε-mVenus; probe 47 2.9 μM, verapamil 25 μM, read-out: Ki (PMA), PKCε) was 0.036 µM.
With C#CCN(CCCCCCCCCCCCNC(=O)c1cc2cc(F)c(O)c(F)c2oc1=O)C(=O)O[C@@]12[C@H](O)[C@@H](C)[C@@]3(O)[C@@H](C=C(CO)C[C@]4(O)C(=O)C(C)=C[C@@H]34)[C@@H]1C2(C)C [probe 48, (1aR,1bS,4aR,7aS,7bS,8R,9R,9aS)-4a,7b,9-trihydroxy-3-(hydroxymethyl)-1,1,6,8-tetramethyl-5-oxo-1,1a,1b,4,4a,5,7a,7b,8,9-decahydro-9aH-cyclopropa[3,4]benzo[1,2-e]azulen-9a-yl (12-(6,8-difluoro-7-hydroxy-2-oxo-2H-chromene-3-carboxamido)dodecyl)(prop-2-yn-1-yl)carbamate] the “affinity relative to 33” value (C1A-C1A-EYFP (PKCγ)) was about 2 fold and the Kd (C1A-C1A-EYFP (PKCγ); verapamil 100 μM, 90 min, 37° C., DMEM high glucose, 4% FBS, read-out: apparent Kd) was 2 µM.
For COc1cc2cc(c1Cl)N(C)C(=O)C[C@H](OC(=O)[C@H](C)N(C)C(C)=O)[C@]1(C)O[C@H]1[C@H](C)[C@@H]1C[C@@](O)(NC(=O)O1)[C@H](OC)/C=C/C=C(\C)C2 [maytansine], the “cooperativity factor α” value [2] was 0.21 and the Kb [2] was 0.003 µM.
For CC(=O)O[C@H]1C(=O)[C@@]2(C)[C@H]([C@H](OC(=O)c3ccccc3)[C@]3(O)C[C@H](O)C(C)=C1C3(C)C)[C@]1(OC(C)=O)CO[C@@H]1C[C@@H]2O [baccatin III], the “inhibition of binding of PB-GABA-Taxol to cellular microtubules” value [3] is given as 28%, the Kd [4] is given as 6.7 ± 2 µM and the Ki [5] is given as 17 ± 3 µM.
CC1=C[C@H]2[C@@]3(O)[C@H](C)[C@@H](O)[C@]4(OC(=O)N(C)CCCCCCCCN(C)C(=O)c5cc6cc(F)c(O)c(F)c6oc5=O)[C@H]([C@@H]3C=C(CO)C[C@]2(O)C1=O)C4(C)C [probe 32, (1aR,1bS,4aR,7aS,7bS,8R,9R,9aS)-4a,7b,9-trihydroxy-3-(hydroxymethyl)-1,1,6,8-tetramethyl-5-oxo-1,1a,1b,4,4a,5,7a,7b,8,9-decahydro-9aH-cyclopropa[3,4]benzo[1,2-e]azulen-9a-yl (8-(6,8-difluoro-7-hydroxy-N-methyl-2-oxo-2H-chromene-3-carboxamido)octyl)(methyl)carbamate] showed a Kd (mouse PKCβI-mVenus [6]) of 63 µM.
In the case of CO[C@H]1C(=O)[C@]2(C)[C@@H](OC)C[C@H]3OC[C@@]3(OC(C)=O)[C@H]2[C@H](OC(=O)c2ccccc2)[C@]2(O)C[C@H](OC(=O)[C@H](O)[C@@H](NC(=O)OC(C)(C)C)c3ccccc3)C(C)=C1C2(C)C [cabazitaxel], the Ki [4] is listed as 0.0074 ± 0.0009 µM and the Ki [5] is listed as 0.006 µM.
For CC[C@]1(O)C[C@@H]2CN(CCc3c([nH]c4ccccc34)[C@@](C(=O)OC)(c3cc4c(cc3OC)N(C)[C@H]3[C@@](O)(C(=O)OC)[C@H](OC(C)=O)[C@]5(CC)C=CCN6CC[C@]43[C@@H]65)C2)C1 [vinblastine], the Kd [4] is listed as 0.19 to 1 µM, the “cooperativity factor α” value [2] is listed as 0.18 and the Kb [2] is listed as 0.007 µM.
In the case of CC(=O)O[C@@]12CO[C@@H]1C[C@H](O)[C@@]1(C)C(=O)[C@H](O)C3=C(C)[C@@H](OC(=O)[C@H](O)[C@@H](NC(=O)OC(C)(C)C)c4ccccc4)C[C@@](O)([C@@H](OC(=O)c4ccccc4)[C@H]21)C3(C)C [docetaxel], the Ki [4] is given as 0.017 ± 0.006 µM and the Ki [5] is given as 0.016 µM.
